Data: paper PMC12589732, “Chemical composition and biological effects of Lavandula angustifolia Mill., essential oils” (AMB Express, 2025)

Target: T1, Tyrosinase
T1 construct: gene PPO3
Assay: L-DOPA oxidation, […] nm
Assay type: biochemical
Conditions: substrate L-DOPA 5 mM stock; 50 mM phosphate pH 6.5; 37 °C; 10 min preincubation

O=c1c(O)c(-c2ccc(O)c(O)c2)oc2cc(O)cc(O)c12 [Quercetin]
Dermatoprotective: 242.99 ± 2.67 µg/mL
